Data: US12247029B2, “Heterocyclic compounds as class II phosphoinositide 3-kinase inhibitors” (Forschungsverbund Berlin e.V., priority 2018, dated 2025)

Biological target: PI3KC2α Δ1-298 (Homo sapiens (Human), UniProt O00443)
Test: ADP-Glo kinase assay with purified PI3KC2α Δ1-298
Assay type: biochemical
Details: for IC50: read-out: IC50 (PI3KC2α; ADP-Glo™ assay)
Procedure: Previous studies have shown that PI3KC2α can utilize phosphatidylinositol (PI) or phosphatidylinositol 4-phosphate [PI(4)P] to produce PI(3)P or PI(3,4)P2 respectively but with a preference for PI(3,4)P2 production. To verify that purified PI3KC2α Δ1-298 is active, a radioactive kinase assay was performed with PI as a substrate and different amounts of purified PI3KC2α Δ1-298. The lipid product [PI(3)P] was separated on TLC plates, and the PI(3)P signal was correlated with the amount of PI3KC2α used (FIG. 4A). […] After having confirmed the activity of purified PI3KC2α Δ1-298, an assay suitable for high content screens in multiwell format (ADP-Glo™ assay) was established. The ADP-Glo™ assay has been used for universal detection of ATP hydrolysis. This assay measures ATP hydrolysis occurring during a kinase reaction. For detection, generated ADP is re-converted into ATP with the […] and converted into light by the Ultra-Glo™ Luciferase reagent. The luminescent signal reports kinase activity (FIG. 4B).
The ADP-Glo™ assay was first used to determine the linear correlation range of signal with different amounts of kinase, and then to assess the Kms for ATP and for PI. […] Further optimization of this assay allowed us to carry out medium-to-high throughput screening using low amounts of purified enzyme (at fixed concentrations of: ATP=40 μM, PI=200 μM, PI3KC2α A1−298=10 ng/μl).
Primary screens were performed using the ADP-Glo™ assay in a 384-well format. 37, 224 small molecules were screened for their ability to inhibit kinase activity of PI3KC2α Δ1-298. The concentration of each compound used in the primary screens was 10 μM. Kinase incubations with ATP but without PI were used as negative control samples. This primary screen turned out to be robust with an average z′ factor of 0.57, and therefore judged as successful.
ADP-Glo kinase assay was performed as described by the manufacturer's protocol. Briefly, the kinase assay was performed with a […] of liver PI/ATP/purified PI3KC2α for 20 min in kinase reaction buffer described above. To deplete the remaining ATP from the reaction, 5 μl of […] was added to the kinase reaction mixture and incubated for 40 min. For detection, the generated ADP is re-converted into ATP and converted into light by the Ultra-Glo™ luciferase in kinase detection reagent. The luminescent signal positively correlates with kinase activity. All reactions are performed in Corning® 384 well-white plates.

Chain of PI3KC2α Δ1-298 (O00443 299-1686): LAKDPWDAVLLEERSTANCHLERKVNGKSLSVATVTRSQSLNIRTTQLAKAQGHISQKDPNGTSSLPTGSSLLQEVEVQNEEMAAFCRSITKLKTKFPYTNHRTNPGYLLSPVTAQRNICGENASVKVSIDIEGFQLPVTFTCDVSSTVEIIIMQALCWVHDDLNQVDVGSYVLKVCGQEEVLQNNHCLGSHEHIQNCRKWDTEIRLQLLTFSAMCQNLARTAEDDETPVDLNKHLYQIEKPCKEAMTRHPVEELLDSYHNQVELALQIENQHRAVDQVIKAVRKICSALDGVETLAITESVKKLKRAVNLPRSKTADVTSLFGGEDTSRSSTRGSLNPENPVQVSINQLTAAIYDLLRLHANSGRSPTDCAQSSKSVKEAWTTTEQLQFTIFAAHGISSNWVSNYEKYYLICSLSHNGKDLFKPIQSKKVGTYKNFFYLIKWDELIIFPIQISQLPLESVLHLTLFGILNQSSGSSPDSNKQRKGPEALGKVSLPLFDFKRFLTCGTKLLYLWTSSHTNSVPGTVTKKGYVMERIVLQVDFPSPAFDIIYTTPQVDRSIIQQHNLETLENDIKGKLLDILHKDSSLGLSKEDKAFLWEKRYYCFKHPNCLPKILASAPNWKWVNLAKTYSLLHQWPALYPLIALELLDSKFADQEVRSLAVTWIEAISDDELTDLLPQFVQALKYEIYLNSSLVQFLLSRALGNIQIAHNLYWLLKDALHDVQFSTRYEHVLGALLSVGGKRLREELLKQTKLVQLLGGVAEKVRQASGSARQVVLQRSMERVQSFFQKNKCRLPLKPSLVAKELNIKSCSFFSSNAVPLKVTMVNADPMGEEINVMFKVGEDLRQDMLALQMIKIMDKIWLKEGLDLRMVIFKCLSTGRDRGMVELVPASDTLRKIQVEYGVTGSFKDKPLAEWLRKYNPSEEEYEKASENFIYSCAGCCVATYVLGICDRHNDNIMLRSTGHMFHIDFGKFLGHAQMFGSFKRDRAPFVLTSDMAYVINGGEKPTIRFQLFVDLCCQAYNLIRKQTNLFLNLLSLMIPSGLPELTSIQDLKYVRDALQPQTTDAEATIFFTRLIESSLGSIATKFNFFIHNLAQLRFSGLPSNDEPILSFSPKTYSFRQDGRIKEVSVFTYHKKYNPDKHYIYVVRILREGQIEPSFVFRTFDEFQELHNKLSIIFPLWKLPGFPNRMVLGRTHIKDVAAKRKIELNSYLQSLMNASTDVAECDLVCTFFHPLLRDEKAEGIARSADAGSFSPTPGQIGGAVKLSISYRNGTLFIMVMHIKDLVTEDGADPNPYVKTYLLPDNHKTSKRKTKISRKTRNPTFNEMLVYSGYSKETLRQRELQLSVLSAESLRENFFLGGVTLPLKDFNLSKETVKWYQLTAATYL

Row | SMILES | IC50 [nM] | PI3KC2α inhibitory activity (in words, SAR)
1 | O=c1c2nccnc2nc(SCc2nc3cc(Cl)ccc3[nH]2)n1CCc1ccccc1 [Example Compound 69, 2-(((5-Chloro-1H-benzo[d]imidazol-2-yl)methyl)thio)-3-phenethylpteridin-4(3H)-one] | 27000 | 
2 | O=c1c2nccnc2nc(SCc2nc3cccnc3[nH]2)n1CCc1ccccc1 [Example Compound 73, 2-(((3H-Imidazo[4,5-b]pyridin-2-yl)methyl)thio)-3-phenethylpteridin-4(3H)-one] | 610 | 
3 | O=C(CSc1nc2nccnc2c(=O)n1CCc1cccc(F)c1)Nc1nc(-c2ccc(F)cc2)cs1 [Example Compound 6, 2-((3-(3-Fluorophenethyl)-4-oxo-3,4-dihydropteridin-2-yl)thio)-N-(4-(4-fluorophenyl)thiazol-2-yl)acetamide] | 610 | functional compounds
4 | Cc1nnc(NS(=O)(=O)c2ccc(-n3c(SCC(=O)Nc4nccs4)nc4nccnc4c3=O)cc2)s1 [Example Compound 80, 2-((3-(4-(N-(5-Methyl-1,3,4-thiadiazol-2-yl)sulfamoyl)phenyl)-4-oxo-3,4-dihydropteridin-2-yl)thio)-N-(thiazol-2-yl)acetamide] | 280 | 
5 | O=C(CSc1nc2nccnc2c(=O)n1CCC1CCCCC1)Nc1nccs1 [Example Compound 44, 2-((3-(2-Cyclohexylethyl)-4-oxo-3,4-dihydropteridin-2-yl)thio)-N-(thiazol-2-yl)acetamide] | 590 | 
6 | C[C@@H](c1ccccc1)n1c(SCC(=O)Nc2nccs2)nc2nccnc2c1=O [Example Compound 89, (S)-2-((4-Oxo-3-(1-phenylethyl)-3,4-dihydropteridin-2-yl)-thio)-N-(thiazol-2-yl) acetamide] | 1700 | 
7 | CS(=O)(=O)c1ccc(-n2c(SCC(=O)Nc3nccs3)nc3nccnc3c2=O)cc1 [Example Compound 78, 2-((3-(4-(Methylsulfonyl)phenyl)-4-oxo-3,4-dihydropteridin-2-yl)thio)-N-(thiazol-2-yl)acetamide] | 9500 | 
8 | O=C(CSc1nc2nccnc2c(=O)n1CCc1ccccc1)Nc1cc(-c2ccccc2)cs1 [Example Compound 27, 2-((4-Oxo-3-phenethyl-3,4-dihydropteridin-2-yl)thio)-N-(4-phenylthiophen-2-yl)acetamide] | 17200 | 
9 | O=c1c2nccnc2nc(SCc2nc3ccccc3[nH]2)n1CCc1ccc(O)cc1 [Example Compound 96, 2-(((1H-Benzo[d]imidazol-2-yl)methyl)thio)-3-(4-hydroxyphenethyl)pteridin-4(3H)-one] | 100 | 
10 | O=C(CSc1nc2nccnc2c(=O)n1CCc1ccccc1)Nc1ccccc1 [Example Compound 22, 2-((4-Oxo-3-phenethyl-3,4-dihydropteridin-2-yl)thio)-N-phenylacetamide] | 3300 | 
11 | O=C(CSc1nc2nccnc2c(=O)n1CCc1cccc(F)c1)Nc1ncco1 [Example Compound 3, 2-((3-(3-Fluorophenethyl)-4-oxo-3,4-dihydropteridin-2-yl)thio)-N-(oxazol-2-yl)acetamide] | 2100 | 
12 | O=C(CSc1nc2nccnc2c(=O)n1CCc1ccccc1)Nc1nc(-c2ccc(Cl)cc2)cs1 [Example Compound 49, N-(4-(4-Chlorophenyl)thiazol-2-yl)-2-((4-oxo-3-phenethyl-3,4-dihydropteridin-2-yl)thio)acetamide] | 7100 | 
13 | O=C(CSc1nc2nccnc2c(=O)n1CCc1ccccc1)Nc1nc(-c2ccccc2)cs1 [Example Compound 10, 2-((4-Oxo-3-phenethyl-3,4-dihydropteridin-2-yl)thio)-N-(4-phenylthiazol-2-yl)acetamide] | 1260 | functional compounds
14 | O=C(CSc1nc2nccnc2c(=O)n1Cc1ccco1)Nc1ccccc1F [Example Compound 33, N-(2-Fluorophenyl)-2-((3-(furan-2-ylmethyl)-4-oxo-3,4-dihydropteridin-2-yl)thio)acetamide] | 7900 | 
15 | O=C(CSc1nc2nccnc2c(=O)n1CCc1ccccc1)Nc1nc(-c2cccc(F)c2)cs1 [Example Compound 26, N-(4-(3-Fluorophenyl)thiazol-2-yl)-2-((4-oxo-3-phenethyl-3,4-dihydropteridin-2-yl)thio)acetamide] | 1500 | 
16 | NC(=O)c1ccc(-n2c(SCC(=O)Nc3nccs3)nc3nccnc3c2=O)cc1 [Example Compound 41, 4-(4-Oxo-2-((2-oxo-2-(thiazol-2-ylamino)ethyl)thio)pteridin-3(4H)-yl)benzamide] | 51 | 

Row | SMILES | IC50 [nM] | PI3KC2α inhibitory activity (in words, SAR)
17 | CS(=O)(=O)Nc1cccc(-c2csc(NC(=O)CSc3nc4nccnc4c(=O)n3CCc3ccccc3)n2)c1 [Example Compound 12, N-(4-(3-(Methylsulfonamido)phenyl)thiazol-2-yl)-2-((4-oxo-3-phenethyl-3,4-dihydropteridin-2-yl)thio)acetamide] | 130 | 
18 | O=C(CSc1nc2nccnc2c(=O)n1CCc1ccccc1)NC1CCC1 [Example Compound 60, N-Cyclobutyl-2-((4-oxo-3-phenethyl-3,4-dihydropteridin-2-yl)thio)acetamide] | 5900 | 
19 | COC(=O)[C@H]1C[C@H](n2c(SCC(=O)Nc3nccs3)nc3nccnc3c2=O)C1 [Example Compound 91, trans-Methyl 3-(4-oxo-2-((2-oxo-2-(thiazol-2-ylamino)ethyl)thio)pteridin-3(4H)-yl)cyclobutane-1-carboxylate] | 370 | 
20 | O=C(CSc1nc2nccnc2c(=O)n1C1CC1c1ccccc1)Nc1nccs1 (stereo not drawn) [Example Compound 21, 2-((4-Oxo-3-(2-phenylcyclopropyl)-3,4-dihydropteridin-2-yl)thio)-N-(thiazol-2-yl)acetamide] | 12000 | 
21 | O=C(CSc1nc2cccnc2c(=O)n1CCc1ccccc1)Nc1nccs1 [Example Compound 13, 2-((4-Oxo-3-phenethyl-3,4-dihydropyrido[3,2-d]pyrimidin-2-yl)thio)-N-(thiazol-2-yl)acetamide] | 13000 | 
22 | COc1cccc2nc(NC(=O)CSc3nc4nccnc4c(=O)n3CCc3ccccc3)sc12 [Example Compound 56, N-(7-Methoxybenzo[d]thiazol-2-yl)-2-((4-oxo-3-phenethyl-3,4-dihydropteridin-2-yl)thio)acetamide] | 3100 | 
23 | O=c1c2nccnc2nc(SCc2nc3ccccc3s2)n1CCc1ccccc1 [Example Compound 62, 2-((Benzo[d]thiazol-2-ylmethyl)thio)-3-phenethylpteridin-4(3H)-one] | 4000 | 
24 | Cc1ccnc2[nH]c(CSc3nc4nccnc4c(=O)n3CCc3ccccc3)nc12 [Example Compound 70, 2-(((7-Methyl-3H-imidazo[4,5-b]pyridin-2-yl)methyl)thio)-3-phenethylpteridin-4(3H)-one] | 42000 | 
25 | COC(=O)Cc1csc(NC(=O)CSc2nc3nccnc3c(=O)n2CCc2ccccc2)n1 [Example Compound 24, Methyl 2-(2-(2-((4-oxo-3-phenethyl-3,4-dihydropteridin-2-yl)thio)acetamido)thiazol-4-yl)acetate] | 2200 | 
26 | O=C(CSc1nc2nccnc2c(=O)n1CCc1ccccc1)Nc1nc2c(F)cc(F)cc2s1 [Example Compound 57, N-(4,6-Difluorobenzo[d]thiazol-2-yl)-2-((4-oxo-3-phenethyl-3,4-dihydropteridin-2-yl)thio)acetamide] | 3400 | 
27 | O=C(CSc1nc2nccnc2c(=O)n1CCc1cccc(C(F)(F)F)c1)Nc1nccs1 [Example Compound 9, 2-((4-Oxo-3-(3-(trifluoromethyl)phenethyl)-3,4-dihydropteridin-2-yl)thio)-N-(thiazol-2-yl)acetamide] | 1500 | 
28 | CNC(=O)c1ccc(-n2c(SCc3nc4ccccc4[nH]3)nc3nccnc3c2=O)cc1 [Example Compound 82, 4-(2-(((1H-Benzo[d]imidazol-2-yl)methyl)thio)-4-oxopteridin-3(4H)-yl)-N-methylbenzamide] | 610 | 
29 | N#Cc1ccc(NC(=O)CSc2nc3nccnc3c(=O)n2CCc2ccccc2)nc1 [Example Compound 28, N-(5-Cyanopyridin-2-yl)-2-((4-oxo-3-phenethyl-3,4-dihydropteridin-2-yl)thio)acetamide] | 7600 | 
30 | O=C(CSc1nc2nccnc2c(=O)n1C1Cc2ccccc2C1)Nc1nccs1 [Example Compound 87, 2-((3-(2,3-Dihydro-1H-inden-2-yl)-4-oxo-3,4-dihydropteridin-2-yl)thio)-N-(thiazol-2-yl)acetamide] | 170 | 
31 | N#Cc1ccc(-c2csc(NC(=O)CSc3nc4nccnc4c(=O)n3CCc3ccccc3)n2)cc1 [Example Compound 50, N-(4-(4-Cyanophenyl)thiazol-2-yl)-2-((4-oxo-3-phenethyl-3,4-dihydropteridin-2-yl)thio)acetamide] | 2900 | 
